Each structure is given as a SMILES string. Bounds are passed on as bounds.

The experiment deals with T1, Kv1.5 channels from humans (Homo sapiens, UniProt P22460).
T1 construct: expressed in transfected cells; host or cells: Xenopus laevis oocytes injected with in vitro synthesized RNA
Kind of experiment: Kv1.5 currents in Xenopus oocytes, 2-microelectrode voltage clamp. It counts as cell-based. The note with it: human Kv1.5 expressed in Xenopus laevis oocytes; voltage jumps to 0 mV and 40 mV, 500 ms; room temperature; inhibition of Kv1.5 control current, Hill equation. The procedure: Kv1.5 channels from humans were expressed in Xenopus oocytes. To this end, oocytes from Xenopus laevis were first isolated and defolliculated. RNA coding for Kv1.5 synthesized in vitro was then injected into these oocytes. After a Kv1.5 protein expression for 1-7 days, Kv1.5 currents were measured on the oocytes using the 2-microelectrode voltage clamp technique. The Kv1.5 channels were in this case as a rule activated using voltage jumps to 0 mV and 40 mV lasting 500 ms. The bath was rinsed using a solution of the following composition: NaCl 96 mM, KCl 2 mM, CaCl2 1.8 mM, MgCl2 1 mM, HEPES 5 mM (titrated with NaOH to pH 7.4). These experiments were carried out at room temperature. The following were employed for data acquisition and analysis: Gene clamp amplifier (Axon Instruments, Foster City, USA) and MacLab D/A converter and software (ADInstruments, Castle Hill, Australia). The substances according to the invention were tested by adding them to the bath solution in different concentrations. The effects of the substances were calculated as the percentage inhibition of the Kv1.5 control current which was obtained when no substance was added to the solution. The data were then extrapolated using the Hill equation in order to determine the inhibition concentrations IC50 for the respective substances.

T1 sequence (P22460 whole entry): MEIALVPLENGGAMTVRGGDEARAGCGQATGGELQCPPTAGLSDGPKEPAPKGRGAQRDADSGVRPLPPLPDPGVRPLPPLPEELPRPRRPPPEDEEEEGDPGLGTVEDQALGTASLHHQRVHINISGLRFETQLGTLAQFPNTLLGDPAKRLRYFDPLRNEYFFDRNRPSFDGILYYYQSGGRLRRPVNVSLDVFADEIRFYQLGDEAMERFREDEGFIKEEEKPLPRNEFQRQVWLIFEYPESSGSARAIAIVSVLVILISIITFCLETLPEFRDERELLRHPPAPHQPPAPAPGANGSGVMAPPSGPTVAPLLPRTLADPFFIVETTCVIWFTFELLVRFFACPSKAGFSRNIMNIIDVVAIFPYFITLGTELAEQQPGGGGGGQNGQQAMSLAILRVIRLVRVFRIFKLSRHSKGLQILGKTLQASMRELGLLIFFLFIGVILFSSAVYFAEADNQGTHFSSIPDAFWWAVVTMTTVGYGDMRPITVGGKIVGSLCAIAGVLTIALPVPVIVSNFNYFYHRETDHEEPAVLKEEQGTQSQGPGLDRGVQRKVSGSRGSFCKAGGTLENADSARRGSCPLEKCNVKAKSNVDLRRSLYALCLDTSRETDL

With `CC(C)(C)OC(=O)NCc1ccccc1-c1cncc(C(=O)NCc2ccc(F)cc2F)c1` [Example 8], the concentration for half-maximal inhibition (IC50) was below 100 µM.

`CC(C)CCNC(=O)c1cccc(-c2ccccc2CNC(=O)OCc2ccccc2)c1` [Example 14]: the IC50 is below 100 µM.

Regarding `COc1ccc(CC(=O)NCc2ccccc2-c2cccc(C(=O)NCc3ccc(F)cc3F)n2)cc1` [Example 21], the IC50 stood at 5.7 µM.

The molecule `CC(C)(C)OC(=O)NCc1ccccc1-c1ccc(Cl)c(C(=O)NCc2ccc(F)cc2F)c1` [Example 3] gave an IC50 below 100 µM.

In turn, `CC(C)(C)OC(=O)NCc1ccccc1-c1cccc(C(=O)NCCc2ccccn2)n1` [Example 11] had an IC50 of 10 µM.

The molecule `CC(C)CCNC(=O)c1cccc(-c2ccccc2CNC(=O)OC(C)(C)C)n1` [Example 5] yielded an IC50 of 6 µM.

`COc1ccc(CC(=O)NCc2ccccc2-c2cccc(C(=O)NCc3ccc(F)cc3F)c2)cc1` [Example 27] gave a half-maximal inhibitory concentration (IC50) of 6 µM. This lies in the single-digit micromolar range.

As for `C[C@H](OC(=O)NCc1ccccc1-c1cccc(C(=O)NCCc2ccccn2)n1)c1ccccc1` [Example 12, (S)-1-(Phenylethyl) {2-[6-(2-pyridin-2-ylethylcarbamoyl)pyridin-2-yl]benzyl}carbamate], the IC50 turned out to be 2.2 µM.

`CCOc1ccc(C(=O)NCc2ccccc2-c2cccc(C(=O)Nc3ccc(OC)cc3)n2)cc1` [Example 24] displayed a concentration for half-maximal inhibition (IC50) below 100 µM.

As for `COc1ccc(CCC(=O)NCc2ccccc2-c2cccc(C(=O)Nc3ccc(OC)cc3)n2)cc1` [Example 23], the IC50 was below 100 µM.

Consider `COc1ccc(CC(=O)NCc2ccccc2-c2cncc(C(=O)NCc3ccc(F)cc3F)c2)cc1` [Example 26], for which the IC50 came out at 7.4 µM.

Regarding `CC(C)C[C@H](NC(=O)c1cccc(-c2ccccc2CNC(=O)O[C@@H](C)c2ccccc2)n1)C(N)=O` [Example 18], it took 4.2 µM to reach half-maximal inhibition (IC50).

The molecule `CC(C)(C)OC(=O)NCc1ccccc1-c1cccc(C(=O)NCc2ccc(F)cc2F)n1` [Example 6] returned an IC50 below 100 µM.

Molecule `COc1ccc(NC(=O)c2cccc(-c3ccccc3CNC(=O)OC(C)(C)C)n2)cc1` [Example 9] gave a concentration for half-maximal inhibition (IC50) of 3 µM.

On to `O=C(NCc1ccccc1-c1cccc(C(=O)NCc2ccc(F)cc2F)n1)OCc1ccccc1` [Example 16], for which the half-inhibitory concentration (IC50) is below 100 µM.

For `O=C(NCc1ccccc1-c1cccc(C(=O)NCc2ccc(F)cc2F)c1)OCc1ccccc1` [Example 15], the concentration for half-maximal inhibition (IC50) is below 100 µM.

Turning to `CC(C)C[C@H](NC(=O)c1cccc(-c2ccccc2CNC(=O)OC(C)(C)C)n1)C(N)=O` [Example 10], the IC50 was below 100 µM.

For the molecule `CC(C)(C)OC(=O)NCc1ccccc1-c1cccc(C(=O)NCc2ccc(F)cc2F)c1` [Example 2], the IC50 was below 100 µM.

`COc1ccc(CCC(=O)NCc2ccccc2-c2cc(C(=O)NCCC(C)C)ccc2C)cc1` [Example 30] showed a half-inhibitory concentration (IC50) of 3.1 µM. This counts as single-digit micromolar.

As to `COc1ccc(CC(=O)NCc2ccccc2-c2cccc(C(=O)Nc3ccc(OC)cc3)n2)cc1` [Example 20, 6-(2-{[2-(4-Methoxyphenyl)acetylamino]methyl}phenyl)pyridine-2-carboxylic acid (4-methoxyphenyl)amide], the half-maximal inhibitory concentration (IC50) is below 100 µM.

`COc1ccc(NC(=O)c2cccc(-c3ccccc3CNC(=O)O[C@@H](C)c3ccccc3)n2)cc1` [Example 19]: the midpoint of inhibition, the IC50, lay at 2 µM. This lies in the single-digit micromolar range.

Turning to `Cc1ccc(C(=O)NCCC(C)C)cc1-c1ccccc1CNC(=O)OC(C)(C)C` [Example 4], it took 6.1 µM to reach half-maximal inhibition (IC50). This IC50 lies about 3-fold higher than the previous one.

Regarding `COc1ccc(CC(=O)NCc2ccccc2-c2cccc(C(=O)NCCc3ccccn3)n2)cc1` [Example 22], the half-inhibitory concentration (IC50) is below 100 µM.

Turning to `COc1ccc(CC(=O)NCc2ccccc2-c2cc(C(=O)NCCC(C)C)ccc2C)cc1` [Example 29], the half-inhibitory concentration (IC50) came out at 4 µM.

As to `COc1ccc(CC(=O)NCc2ccccc2-c2cccc(C(=O)NCCC(C)C)c2)cc1` [Example 28], the IC50 was 4.2 µM. The IC50 values of the last two molecules are within 1.5-fold of each other.

On to `CC(C)CCNC(=O)c1cccc(-c2ccccc2CNC(=O)OCc2ccccc2)n1` [Example 17], for which the IC50 was below 100 µM.

The molecule `CC(C)CCNC(=O)c1cncc(-c2ccccc2CNC(=O)OC(C)(C)C)c1` [Example 7] showed an IC50 below 100 µM.

`Cc1ccc(C(=O)NCCC(C)C)cc1-c1ccccc1CNC(=O)OCc1ccccc1` [Example 13] yielded an IC50 of 7 µM.
